Experiments:
Type in all cases: in vivo
[1] = tested on: chickweed; experiment: wheat field resistant broadleaf weed control, greenhouse spray at 4 leaf stage; parameters: key: Level 10: completely dead; Level 9: above 95% growth control rate; Level 8: above 90% growth control rate; Level 7: above 80% growth control rate; Level 6: above 70% growth control rate; Level 5: above 60% growth control rate; Level 4: above 50% growth control rate; Level 3: above 20% growth control rate; Level 2: 5%-20% growth control rate; Level 1: below 5% growth control rate; settings: 250 g/ha of the active substance; 4 weeks after treatment; ALS inhibitor resistant
Procedure: (§1) The activity level standard of harmful plant destruction (i.e. growth control rate) is as follows:
(§2) The above described growth control rate is fresh weight control rate.
(§3) The seeds of alopecurus japonicas, flixweed, shepherd's purse, corn gromwell, chickweed, beckmannia syzigachne, and annual ryegrass and wheat seeds were put into a plastic pot loaded with soil, and then covered with 0.5-2 cm soil, the seeds were allowed to grow in good greenhouse environment. The test plants were treated at 4 leaf stage 2-3 weeks after sowing. The test compounds of the present invention were dissolved in acetone respectively, then added with methyl oleate emulsion and diluted by certain amount of water to certain concentration. The solution was sprayed to the plant with a sprayer. Then the plants were cultured for 4 weeks in greenhouse.

[2] = tested on: corn gromwell; experiment: as above; parameters: key: Level 10: completely dead; Level 9: above 95% growth control rate; Level 8: above 90% growth control rate; Level 7: above 80% growth control rate; Level 6: above 70% growth control rate; Level 5: above 60% growth control rate; Level 4: above 50% growth control rate; Level 3: above 20% growth control rate; Level 2: 5%-20% growth control rate; Level 1: below 5% growth control rate; settings: 250 g/ha of the active substance; 4 weeks after treatment; ALS inhibitor resistant
Procedure: as §1, §2, §3

[3] = tested on: shepherd's purse; experiment: as above; parameters: key: Level 10: completely dead; Level 9: above 95% growth control rate; Level 8: above 90% growth control rate; Level 7: above 80% growth control rate; Level 6: above 70% growth control rate; Level 5: above 60% growth control rate; Level 4: above 50% growth control rate; Level 3: above 20% growth control rate; Level 2: 5%-20% growth control rate; Level 1: below 5% growth control rate; settings: 250 g/ha of the active substance; 4 weeks after treatment; ALS inhibitor resistant
Procedure: as §1, §2, §3

[4] = tested on: flixweed; experiment: as above; parameters: key: Level 10: completely dead; Level 9: above 95% growth control rate; Level 8: above 90% growth control rate; Level 7: above 80% growth control rate; Level 6: above 70% growth control rate; Level 5: above 60% growth control rate; Level 4: above 50% growth control rate; Level 3: above 20% growth control rate; Level 2: 5%-20% growth control rate; Level 1: below 5% growth control rate; settings: 250 g/ha of the active substance; 4 weeks after treatment; ALS inhibitor resistant
Procedure: as §1, §2, §3

[5] = tested on: foxtail; experiment: weed control effect in post-emergence stage (Table 1); parameters: key: Level 10: completely dead; Level 9: above 95% growth control rate; Level 8: above 90% growth control rate; Level 7: above 80% growth control rate; Level 6: above 70% growth control rate; Level 5: above 60% growth control rate; Level 4: above 50% growth control rate; Level 3: above 20% growth control rate; Level 2: 5%-20% growth control rate; Level 1: below 5% growth control rate; settings: post-emergence spray at 4-5 leaf stage, 250 g/ha active ingredient with 450 kg/ha water, rated after 3 weeks in greenhouse
How it was run: (§4)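 Weed and crop seeds sown in soil-filled pots under 0.5-2 cm soil, greenhouse-grown, then sprayed at 4-5 leaf stage (2-3 weeks after sowing) with compound in acetone/Tween 80/water. Fresh weight growth control rate assessed after 3 weeks in greenhouse.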

[6] = tested on: Indian mallow; experiment: as above; parameters: key: Level 10: completely dead; Level 9: above 95% growth control rate; Level 8: above 90% growth control rate; Level 7: above 80% growth control rate; Level 6: above 70% growth control rate; Level 5: above 60% growth control rate; Level 4: above 50% growth control rate; Level 3: above 20% growth control rate; Level 2: 5%-20% growth control rate; Level 1: below 5% growth control rate; settings: post-emergence spray at 4-5 leaf stage, 250 g/ha active ingredient with 450 kg/ha water, rated after 3 weeks in greenhouse
How it was run: as §4

[7] = tested on: rorippa indica; experiment: as above; parameters: key: Level 10: completely dead; Level 9: above 95% growth control rate; Level 8: above 90% growth control rate; Level 7: above 80% growth control rate; Level 6: above 70% growth control rate; Level 5: above 60% growth control rate; Level 4: above 50% growth control rate; Level 3: above 20% growth control rate; Level 2: 5%-20% growth control rate; Level 1: below 5% growth control rate; settings: post-emergence spray at 4-5 leaf stage, 250 g/ha active ingredient with 450 kg/ha water, rated after 3 weeks in greenhouse
How it was run: as §4

[8] = tested on: bidens bipinnata; experiment: as above; parameters: key: Level 10: completely dead; Level 9: above 95% growth control rate; Level 8: above 90% growth control rate; Level 7: above 80% growth control rate; Level 6: above 70% growth control rate; Level 5: above 60% growth control rate; Level 4: above 50% growth control rate; Level 3: above 20% growth control rate; Level 2: 5%-20% growth control rate; Level 1: below 5% growth control rate; settings: post-emergence spray at 4-5 leaf stage, 250 g/ha active ingredient with 450 kg/ha water, rated after 3 weeks in greenhouse
How it was run: as §4

[9] = tested on: echinochloa; experiment: as above; parameters: key: Level 10: completely dead; Level 9: above 95% growth control rate; Level 8: above 90% growth control rate; Level 7: above 80% growth control rate; Level 6: above 70% growth control rate; Level 5: above 60% growth control rate; Level 4: above 50% growth control rate; Level 3: above 20% growth control rate; Level 2: 5%-20% growth control rate; Level 1: below 5% growth control rate; settings: post-emergence spray at 4-5 leaf stage, 250 g/ha active ingredient with 450 kg/ha water, rated after 3 weeks in greenhouse
How it was run: as §4

[10] = tested on: crab grass; experiment: as above; parameters: key: Level 10: completely dead; Level 9: above 95% growth control rate; Level 8: above 90% growth control rate; Level 7: above 80% growth control rate; Level 6: above 70% growth control rate; Level 5: above 60% growth control rate; Level 4: above 50% growth control rate; Level 3: above 20% growth control rate; Level 2: 5%-20% growth control rate; Level 1: below 5% growth control rate; settings: post-emergence spray at 4-5 leaf stage, 250 g/ha active ingredient with 450 kg/ha water, rated after 3 weeks in greenhouse
How it was run: as §4

[11] = tested on: wheat; experiment: wheat field test, crop selectivity, greenhouse spray at 4 leaf stage; settings: 250 g/ha of the active substance; 4 weeks after treatment
How it was run: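 Read-out: fresh weight control rate, scored 4 weeks after a post-emergence spray. Treatment at 4 leaf stage (2-3 weeks after sowing); compound dissolved in acetone, with methyl oleate emulsion, diluted with water.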

[12] = tested on: rice; experiment: post-emergence stage experiment, crop (Table 1); parameters: key: Level 10: completely dead; Level 9: above 95% growth control rate; Level 8: above 90% growth control rate; Level 7: above 80% growth control rate; Level 6: above 70% growth control rate; Level 5: above 60% growth control rate; Level 4: above 50% growth control rate; Level 3: above 20% growth control rate; Level 2: 5%-20% growth control rate; Level 1: below 5% growth control rate; settings: post-emergence spray at 4-5 leaf stage, 250 g/ha active ingredient with 450 kg/ha water, rated after 3 weeks in greenhouse
How it was run: as §4

[13] = tested on: wheat; experiment: post-emergence stage experiment, crop (Table 1); settings: post-emergence spray at 4-5 leaf stage, 250 g/ha active ingredient with 450 kg/ha water, rated after 3 weeks in greenhouse
How it was run: as §4

[14] = tested on: corn; experiment: post-emergence stage experiment, crop (Table 1); settings: post-emergence spray at 4-5 leaf stage, 250 g/ha active ingredient with 450 kg/ha water, rated after 3 weeks in greenhouse
How it was run: as §4

SMILES | chickweed weed controlling effect (activity level) [1] | corn gromwell weed controlling effect (activity level) [2] | shepherd's purse weed controlling effect (activity level) [3] | flixweed weed controlling effect (activity level) [4] | weed control effect, Green foxtail (level) [5] | weed control effect, Indian mallow (level) [6] | weed control effect, Rorippa indica (level) [7] | weed control effect, Bidens bipinnata (level) [8] | weed control effect, Echinochloa (level) [9] | weed control effect, Crab grass (level) [10] | Wheat (activity level, crop damage) [11] | effect on crop, Rice (level) [12] | effect on crop, Wheat (level) [13] | effect on crop, Corn (level) [14]
Cn1cc(C(=O)Oc2c(C(=O)c3ccc(C(F)(F)F)c(N4CCCCCC4=O)c3Cl)c(C3CC3)nn2C)cn1 [Compound 061] | 10 | 10 | 10 | 10 | 1 (Level 1: below 5% growth control rate) | 10 | 10 | 7 (Level 7: above 80% growth control rate) | 5 (Level 5: above 60% growth control rate) | 4 (Level 4: above 50% growth control rate) | 0 | 1 (Level 1: below 5% growth control rate) | 0 | 1 (Level 1: below 5% growth control rate)
CCn1nc(C)c(C(=O)c2ccc(C(F)(F)F)c(N3CCCCCC3=O)c2Cl)c1OC(=O)c1cn(C)nc1C [Compound 119] | 10 | 10 | 10 | 10 | 9 (Level 9: above 95% growth control rate) | 3 (Level 3: above 20% growth control rate) | 10 | 5 (Level 5: above 60% growth control rate) | 10 | 5 (Level 5: above 60% growth control rate) | 1 (Level 1: below 5% growth control rate) | 6 (Level 6: above 70% growth control rate) | 1 (Level 1: below 5% growth control rate) | 3 (Level 3: above 20% growth control rate)
CCn1nc(C2CC2)c(C(=O)c2ccc(C(F)(F)F)c(-n3cccn3)c2Cl)c1O [Compound 134] | 10 | 10 | 10 | 10 | 10 | 10 | 10 | 9 (Level 9: above 95% growth control rate) | 6 (Level 6: above 70% growth control rate) | 2 (Level 2: 5%-20% growth control rate) | 1 (Level 1: below 5% growth control rate) | 10 | 1 (Level 1: below 5% growth control rate) | 3 (Level 3: above 20% growth control rate)
CCc1nn(C)c(OC(=O)c2cn(C)nc2C)c1C(=O)c1ccc(C(F)(F)F)c(N2CCCCC2=O)c1Cl [Compound 111] | 10 | 10 | 10 | 10 | 2 (Level 2: 5%-20% growth control rate) | 10 | 10 | 4 (Level 4: above 50% growth control rate) | 10 | 3 (Level 3: above 20% growth control rate) | 1 (Level 1: below 5% growth control rate) | 10 | 1 (Level 1: below 5% growth control rate) | 1 (Level 1: below 5% growth control rate)
CCOc1c(C(=O)Oc2c(C(=O)c3ccc(C(F)(F)F)c(N4CCCCCC4=O)c3Cl)c(C)nn2C)cnn1C [Compound 056] | 10 | 10 | 10 | 10 | 1 (Level 1: below 5% growth control rate) | 10 | 10 | 5 (Level 5: above 60% growth control rate) | 5 (Level 5: above 60% growth control rate) | 3 (Level 3: above 20% growth control rate) | 0 | 3 (Level 3: above 20% growth control rate) | 0 | 0
Cc1cnn(-c2c(C(F)(F)F)ccc(C(=O)c3c(C)nn(C)c3OC(=O)c3cn(C)nc3C)c2Cl)c1 [Compound 088] | 10 | 10 | 10 | 10 | 10 | 10 | 10 | 4 (Level 4: above 50% growth control rate) | 10 | 9 (Level 9: above 95% growth control rate) | 0 | – | 0 | 0

Reference: patent US11076594B2, “Pyrazolone compound or salt thereof, preparation method therefor, herbicide composition and use thereof” (QINGDAO KINGAGROOT CHEMICAL COMPOUNDS CO., LTD., priority 2015, dated 2021)
